Ends that are not written are not given here.
Columns and labels:
[1] = tested on: Staphylococcus epidermidis DSM 3095; assay: Resistance and sensitivity of the producer strain (strain characterisation, adaptation to rising Epidermin concentrations); format: cell-based; details: for Sonstige Resistenzen: in Flüssigkultur, marked resistance
Description: Der zur Herstellung von Epidermin verwendete Stamm wird nach Schleifer & Kloos (Int. J. Syst. Bact. 25, 50-61 (1975)) wie folgt charakterisiert: Gramfärbung : positiv Zellgröße : Durchmesser 0,5-0,8 µm Koloniengröße : ca. 1 mm Durchmesser Aussehen der Kolonien : glatt, glänzend, in der Mitte leicht erhöht Kolonienfarbe : gräulich - weiß Zellen in Kultur : oft Einzelzellen oder Zweier-Pakete, selten größere Haufen Hämolyse : auf Blutplatten ausgestrichene Kulturen zeigten starke Hämolyse Anaerobes Wachstum : der Stamm wächst auch unter anaeroben Bedingungen Lysozymempfindlichkeit: : die Zellen sind bis 2 mg/ml resistent gegen Lysozym Lysostaphinempfindlichkeit : die Zellen sind schon bei 20 µg/ml sensitiv für Lysostaphin Epidermin-Resistenz : bis 1 mg/ml nachgewiesen Sonstige Resistenzen : in Flüssigkultur zeigt der Stamm eine ausgeprägte Resistenz gegenüber Streptomycin (bis 1 mg/ml) und Spectinomycin (0,5 mg/ml) Erhöhter NaCl-Gehalt : Der Stamm wächst noch gut bis 15% Gew.-% Natriumchlorid.
(§1) Der neue Klon DSM 3095 wurde wie folgt gewonnen: Die Adaption wurde in 100 ml Erlenmeyerkölbchen mit einem seitlichen Einstich und 10 ml Nährlösung (Brain Heart Infusion) durchgeführt. Die Startkultur wurde mit 0,5 ml einer 12 Stunden alten Kultur angeimpft. Für die Kölbchen, die steigende Epidermin-Konzentrationen enthielten, dienten 0,5 ml der jeweils vorangegangenen, gutgewachsenen Kultur als Impfmaterial. Die Beurteilung des Wachstums erfolgte photometrisch bei 578 nm. […] Als Vergleichswert wurde eine unverdünnte 12 Stunden alte Kultur des literaturbekannten Vergleichsstammes NCIB 11536 ausplattiert. Nach 24 Stunden Inkubation bei 37°C zeigten sich bei der auf 10⁻⁶ verdünnten adaptierten Kultur 94 Einzelkolonien. […] Die resistenten Kolonien wurden selektioniert und auf Platten Medium 2 im Raster ausgestrichen. Nach einem Vortest auf Produktion durch Ausstechen von Stückchen mit 5 mm Durchmesser und Aktivitätstest auf Micrococcus luteus ATCC 9341 wurden produzierende Klone im Flüssigmedium getestet.

[2] = tested on: verschiedener Mikroorganismen; assay: Plate diffusion test, spectrum of activity; format: cell-based; details: for Empfindlichkeit verschiedener Mikroorganismen: Plattendiffusionstest, Tabelle 2
Description: Während der Herstellung und Isolierung des Epidermins wurde zur biologischen Charakterisierung der Plattendiffusionstest angewandt; nämlich zur Aufnahme des Wirkungsspektrums sowie zur Kontrolle von Produktion, Aufarbeitung und Anreicherung. Der Test wurde, wie bei Zähner und Maas, Biology of antibiotics (Springer Verlag, Berlin-Heidelberg-New York, 1972) beschrieben, in Petrischalen der Firma Greiner, Nürtingen mit Filterrondellen von 6 mm Durchmesser (Macherey & Nagel, Düren) durchgeführt. Die Filterrondellen wurden mit 20 µl der betreffenden Testflüssigkeit benetzt, bei Raumtemperatur auf einer Glasplatte getrocknet und auf die Testplatten aufgelegt. Die Testplatten wurden bei 37°C inkubiert und nach ca. 16 Stunden die Wachstumshemmung ausgewertet. Als Routinetestkeim diente Streptococcus pyogenes ATCC 8668 und, aufgrund seiner problemloseren Handhabung, Micrococcus luteus ATCC 9341. Testplatten mit Streptococcus pyogenes ATCC 8668: Der Testkeim mußte vor Herstellung der Testplatten auf Blutplatten mit Mucin [Medium: 500 ml Agar pH 7,4, 160 ml Mucinlösung (10 Gewichtsprozent), 3,5 ml Glucoselösung (50 Gewichtsprozent), 70 ml Hammelblut] frisch überimpft werden. Nach 15-18 Stunden Inkubation bei 37°C wurde eine Salinesuspension (E₅₇₈ 0,5) hergestellt und 1 ml dieser Suspension zu 100 ml Nährboden (Medium: Pepton 10 g, Fleischextrakt 8 g, Kochsalz 3 g, Na₂HPO₄ 2 g, Glucose 10 g auf 1 l, pH 7,2) pipettiert. Die zu 10 ml Portionen gegossenen Platten waren einige Tage bei 4°C haltbar. Testplatten mit Micrococcus luteus ATCC 9341: Eine Übernachtkultur (Medium: Pepton 10 g, Fleischextrakt 8 g, Kochsalz 3 g, Na₂HPO₄ 2 g, Glucose 10 g auf 1 l, pH 7,2) wurde auf eine Extinktion von 1,0 bei 578 nm verdünnt. Mit 0,25 ml dieser Suspension wurden 100 ml Agar angeimpft und Platten zu 10 ml gegossen. Die Testplatten konnten mehrere Tage bei 4°C aufbewahrt werden. […]

[3] = tested on: Propionibakteriumacnes-Stämme; assay: Plate diffusion test and minimal inhibitory concentration (Tables 2 and 3); format: cell-based, Propionibacterium acnes; details: summary of Tabellen 2 und 3
Description: Während der Herstellung und Isolierung des Epidermins wurde zur biologischen Charakterisierung der Plattendiffusionstest angewandt; nämlich zur Aufnahme des Wirkungsspektrums sowie zur Kontrolle von Produktion, Aufarbeitung und Anreicherung. Der Test wurde, wie bei Zähner und Maas, Biology of antibiotics (Springer Verlag, Berlin-Heidelberg-New York, 1972) beschrieben, in Petrischalen der Firma Greiner, Nürtingen mit Filterrondellen von 6 mm Durchmesser (Macherey & Nagel, Düren) durchgeführt. Die Filterrondellen wurden mit 20 µl der betreffenden Testflüssigkeit benetzt, bei Raumtemperatur auf einer Glasplatte getrocknet und auf die Testplatten aufgelegt. Die Testplatten wurden bei 37°C inkubiert und nach ca. 16 Stunden die Wachstumshemmung ausgewertet. Als Routinetestkeim diente Streptococcus pyogenes ATCC 8668 und, aufgrund seiner problemloseren Handhabung, Micrococcus luteus ATCC 9341. Testplatten mit Streptococcus pyogenes ATCC 8668: Der Testkeim mußte vor Herstellung der Testplatten auf Blutplatten mit Mucin [Medium: 500 ml Agar pH 7,4, 160 ml Mucinlösung (10 Gewichtsprozent), 3,5 ml Glucoselösung (50 Gewichtsprozent), 70 ml Hammelblut] frisch überimpft werden. […]

[4] = Solubility (characterisation data); format: physicochemical
Description: (§2) Die neue Verbindung Epidermin kann durch folgende Angaben charakterisert werden: • 1. Natur: farbloses Pulver • 2. […] Methanol/Eisessig, löslich in niederen Alkoholen, unlöslich in Chloroform, Aceton, Diethylether, Petrolether. • 3. Farbreaktion auf Kieselgelplatten: Ninhydrin, Chlor/TDM (TDM=4,4'-Bis-(dimethylamino)diphenylmethan), Orcin/Schwefelsäure, Anisaldehyd/Schwefelsäure. Zerstörungsfreier Nachweis im UV-Licht bei 254 nm und durch Sprühen mit Wasser. • 4. Dünnschichtchromatographie: Es wurden Kieselgelfertigplatten 60 F₂₅₄ (Merck) verwendet. System A: Chloroform/Methanol/17% Ammoniak (2/2/1), RF = 0,73 System B: Chloroform/Methanol/17% Ammoniak (70/35/10) RF = 0,30 System C: n-Butanol/Eisessig/Wasser (4/1/1) RF = 0,05 • 5. HPLC : siehe Abb. 7. • 6. […] Molmasse: im Bereich von 2160. Je nach Isolierungsmethoden können als Anionen, z.B. Chlorid, Acetat oder Phosphat, enthalten sein. • 8. Ultraviolettabsorptionsspektrum: In wässriger Lösung langwelliges Maximum bei 267 nm (Abb. 3). • 9. Infrarotabsorptionsspektrum: IR-Spektrum einer Probe in einer Kaliumbromidtablette (Abb. 4). • 10. Kernmagnetische Resonanzspektren ¹H-NMR Spektrum: Abb. 5, ¹³C-NMR-Spektrum: Abb. 6

[5] = pH stability, retention of antibiotic activity in aqueous solutions of different pH; format: physicochemical
Description: as §2
Stabilitätstests und chromatographische Untersuchungen wurden am lyophylisierten Butanolextrakt durchgeführt. Die Inkubation des Extraktes mit wässrigen Lösungen verschiedener pH-Werte ergab ab pH 10 eine starke Abnahme der Aktivität, im Bereich von pH 2-7 ist das Antibiotikum jedoch stabil.

Zellen = assay: Mode of action (bactericidal, lysis of cells); format: cell-based; details: leads to lysis of the cells; same as the culture broth
[6] = tested on: Vergleichsstamm NCIB 11536; assay: Growth of the comparison strain on plates containing Epidermin; format: cell-based, Staphylococcus epidermidis; details: undiluted 12 h culture on plates with 0,15 mg/ml Epidermin, 48 Stunden
Description: as §1

[7] = in vivo
[8] = tested on: Staphylococcus epidermidis NCIB 11536; assay: Biophotometer test, Epidermin added in different growth phases; format: cell-based
Description: (§3) Die Versuche zur Eigenhemmung des Produzentenstammes durch das Antibiotikum und die Untersuchung auf Resistenz der selektionierten Klone wurden im Biophotometer (Eppendorf-Photometer mit Umlaufautomat) durchgeführt.
(§4) Diese Versuche können z.B. im einzelnen wie folgt durchgeführt werden: Jeweils 0,5 ml einer 12 Stunden Kultur von Staphylococcus epidermidis NCIB 11536 bzw. des selektionierten resistenten Stammes DMS 3095 wurden auf frisches Medium überimpft.
(§5) Diese Kulturen ließ man bis zu einer Extinktion von 0,043 bei 578 nm hochwachsen (Küvetten mit einer Schichtdicke von 1 cm) und verteilte sie dann in Portionen zu 7,5 ml in die Küvetten des Biophotometers (Schichtdicke 2 cm).
(§6) Die Dichte der Zellsuspension wurde im Biophotometer auf eine Transmission von 90% eingestellt. Die Inkubation erfolgte bei 37°C und maximaler Belüftung. Epidermin wurde als wässrige Lösung in unterschiedlichen Wachstumsphasen zugegeben.
(§7) Bei beiden Stämmen wurden zu Beginn und in der Mitte der logarithmischen Phase unterschiedliche Epidermin-Konzentrationen zugegeben. Die Ergebnisse sind in Abbildung 13 und 14 dargestellt.

[9] = tested on: resistenter Klon DSM 3095; assay: as above; format: cell-based, Staphylococcus epidermidis
Description: as §3, §4, §5, §6, §7

CN[C@@H]1[C@H](O)[C@H](NC)[C@H]2O[C@@]3(O)C(=O)C[C@@H](C)O[C@H]3O[C@@H]2[C@H]1O [Spectinomycin]
Sonstige Resistenzen [1]: 0,5 mg/ml

Nisin (ITSISLCTPGCKTGALMGCNMKTATCHCSIHVSK; also: lantibiotic: thioether rings and dehydro residues, not placed; UniProt P13068 24-57, looked up) [Vergleichsantibiotikum (vgl. DE-A-2 000 818 bzw. GB-B-1 182 156), Aktivität von 40000 units, reference compound]
Empfindlichkeit verschiedener Mikroorganismen ([2]; Nisin mit einer Aktivität von 40000 units): fast ausschließlich auf grampositive Bakterien wirken

[H]/N=C(/N)N[C@H]1[C@H](O)[C@@H](O)[C@H](O[C@@H]2O[C@@H](C)[C@](O)(C=O)[C@H]2O[C@@H]2O[C@@H](CO)[C@H](O)[C@@H](O)[C@@H]2NC)[C@@H](N/C(N)=N\[H])[C@@H]1O [Streptomycin]
Sonstige Resistenzen [1]: ≤ 1 mg/mL

Epidermin: ribosomal synthetisiertes, heterodet tetracyclisches Dokosapeptidantibiotikum aus Staphylococcus epidermidis DSM 3095 (IASKFICTPGCAKTGSFNSYCC; also: heterodetic tetracyclic lantibiotic, rings and modified residues not placed; UniProt P08136 31-52, looked up)
Wirksamkeit [3]: sehr gute Wirksamkeit
Löslichkeit ([4]; in Chloroform, Aceton, Diethylether, Petrolether): unlöslich
Löslichkeit ([4]; in Mischungen aus Wasser/Eisessig bzw. Methanol/Eisessig): Sehr gut löslich
Löslichkeit ([4]; in niederen Alkoholen): löslich
Stabilität ([5]; bei höheren pH-Werten (above pH 7)): starker Aktivitätsabfall
Stabilität ([5]; pH=2 bis pH=7): Stabil
Stabilität ([5]; tested on lyophilised butanol extract, pH 2-7): stabil
Wirkung (Zellen): bakterizide Wirkung
Einzelkolonien ([1]; adapted culture diluted to 10⁻⁶, plate with 0,5 mg/ml Epidermin, 24 Stunden 37°C): 94
Wachstum ([1]; adapted culture, 1,0 mg/ml Epidermin in Flüssigkultur): noch gut gewachsen
Resistenz ([1]; against the Epidermin it produces itself): resistent
Epidermin-Resistenz ([1]; resistance shown up to this concentration): ≤ 1 mg/mL
Wachstum [6]: wuchs auch nach 48 Stunden Inkubation nicht
Verträglichkeit [7]: sehr gut verträglich
toxische Wirkungen [7]: keine toxischen Wirkungen
Empfindlichkeit verschiedener Mikroorganismen [2]: fast ausschließlich auf grampositive Bakterien wirken
antibakterielle Wirksamkeit ([2]; especially good against a whole series of gram-positive bacteria): sehr gute antibakterielle Wirksamkeit
Wachstumsverlauf ([8]; Abb. 13 Kurve 2: 10 µg/ml zu Beginn der logarithmischen Phase): Lyse
Wachstumsverlauf ([8]; Abb. 13 Kurve 3: 10 µg/ml in der Mitte der logarithmischen Phase): Lyse
Wachstumsverlauf ([8]; Abb. 13 Kurve 4: 2,5 µg/ml in der Mitte der logarithmischen Phase): Wachstumsverzögerung
Wachstumsverlauf ([9]; Abb. 14 Kurve 2: 120 µg/ml zu Beginn der logarithmischen Phase): geringfügige Wachstumsverzögerung
Wachstumsverlauf ([9]; Abb. 14 Kurve 3: 360 µg/ml in der Mitte der logarithmischen Phase): Wachstumsverzögerung
Lyse ([9]; all concentrations tested so far): keine Lyse

Reference: patent EP0181578B1, “Antibiotic polypeptide, process for its preparation and its use” (Dr. Karl Thomae GmbH, priority 1984, dated 1991)
